Laboratory results as given in PMC3179684 (Toxicological Sciences, 2011).
Where “and” joins values, the source holds several entries; their conditions need not be identical. Identical values can stand only once. Like-named read-outs stand apart in the source and are kept apart here. Marks after values point to notes of the source that are not given here.

Experiments:
[1] = determined using a synthetic iron porphyrin; ref Collman et al., 1986; cited from earlier work
[2] = target: T1, CYP2E1 (Mus musculus, UniProt Q05421); experiment: EO formation in ET-exposed mouse liver microsomes; assay type: in vitro ADME, B6C3F1 mice
[3] = target: CYP2E1 (Rattus norvegicus, UniProt P05182); experiment: EO formation in ET-exposed rat liver microsomes; assay type: in vitro ADME, Fischer 344 rats
[4] = target: CYP2E1 (Homo sapiens, UniProt P05181); experiment: EO formation in ET-exposed human liver microsomes; assay type: in vitro ADME
[5] = system: CYP; experiment: EO formation in ET-exposed mouse lung microsomes; assay type: in vitro ADME, B6C3F1 mice
[6] = system: CYP; experiment: EO formation in ET-exposed rat lung microsomes; assay type: in vitro ADME, Fischer 344 rats
[7] = target: T1, CYP2E1; experiment: EO formation in ET-exposed liver microsomes of wild-type mice; assay type: in vitro ADME, 129S1/SvImJ mice (wild-type mice)
[8] = system: CYP; experiment: EO formation in ET-exposed liver microsomes of CYP2E1 knockout mice; assay type: in vitro ADME, 129/Sv-Cyp2e1tm1Gonz/J mice (CYP2E1 knockout mice); details: pooled liver microsomes of 50 CYP2E1 knockout mice
[9] = system: CYP; experiment: Metabolic ET elimination in mouse liver microsomes; assay type: in vitro ADME, B6C3F1 mice; details: 10 mg protein/ml, ET 170 ppm in vessel atmosphere
[10] = Thermodynamic partition coefficient medium-to-air; assay type: physicochemical; details: microsomal incubations, 37°C (ET n = 5, EO n = 3)
[11] = mouse, gas uptake; ref Artati et al. (2009); cited from earlier work
[12] = rat, gas uptake, cited from earlier work
[13] = system: hepatic CYP; details: rats, 600 ppm ET, cited from earlier work
[14] = value used in the physiological toxicokinetic model; ref Csanády et al. (2000); cited from earlier work
[15] = rats; ref Hamm et al., 1984; cited from earlier work
[16] = in vitro and in vivo in rodents; ref Victorin and Ståhlberg, 1988; Walker et al., 2000; cited from earlier work
[17] = system: epoxide hydrolase (EH); details: mouse liver microsomes; about the same obtained here; ref Faller et al., 2001; cited from earlier work
[18] = system: epoxide hydrolase (EH); details: rat liver microsomes; about the same obtained here; ref Faller et al., 2001; cited from earlier work
[19] = GSH 15 mmol/l; ref Faller et al. (2001); cited from earlier work
[20] = 37°C, pH 7, estimated; ref Faller et al., 2001; cited from earlier work

T1 sequence (Q05421 whole entry): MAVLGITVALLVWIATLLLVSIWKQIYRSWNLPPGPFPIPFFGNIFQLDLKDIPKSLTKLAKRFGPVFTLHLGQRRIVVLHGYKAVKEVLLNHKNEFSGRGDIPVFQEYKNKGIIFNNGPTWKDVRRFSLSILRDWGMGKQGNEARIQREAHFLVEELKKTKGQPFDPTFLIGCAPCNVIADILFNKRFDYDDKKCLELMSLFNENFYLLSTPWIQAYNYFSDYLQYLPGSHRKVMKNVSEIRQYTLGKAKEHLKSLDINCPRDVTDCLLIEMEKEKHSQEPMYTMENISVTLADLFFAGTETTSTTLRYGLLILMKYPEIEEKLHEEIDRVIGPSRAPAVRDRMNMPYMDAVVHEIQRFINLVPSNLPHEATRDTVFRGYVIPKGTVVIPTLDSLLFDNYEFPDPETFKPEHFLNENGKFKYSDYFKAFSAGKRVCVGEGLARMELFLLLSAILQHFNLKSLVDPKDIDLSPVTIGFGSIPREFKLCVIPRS
CYP2E1 (Rattus norvegicus, UniProt P05182), sequence (P05182 whole entry): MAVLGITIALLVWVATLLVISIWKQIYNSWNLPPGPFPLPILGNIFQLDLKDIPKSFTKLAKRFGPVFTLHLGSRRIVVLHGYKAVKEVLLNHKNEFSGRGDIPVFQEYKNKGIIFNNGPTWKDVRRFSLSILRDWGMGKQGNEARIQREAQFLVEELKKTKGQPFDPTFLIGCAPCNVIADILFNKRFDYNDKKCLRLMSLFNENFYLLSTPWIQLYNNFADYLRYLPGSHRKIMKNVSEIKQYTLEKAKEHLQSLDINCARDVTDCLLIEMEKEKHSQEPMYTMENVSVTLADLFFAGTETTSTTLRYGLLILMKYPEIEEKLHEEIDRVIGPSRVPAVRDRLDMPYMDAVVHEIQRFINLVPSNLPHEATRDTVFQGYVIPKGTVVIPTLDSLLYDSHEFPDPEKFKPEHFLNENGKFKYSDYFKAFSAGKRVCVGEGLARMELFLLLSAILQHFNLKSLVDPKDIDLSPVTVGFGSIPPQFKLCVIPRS
CYP2E1 (Homo sapiens, UniProt P05181), sequence (P05181 whole entry): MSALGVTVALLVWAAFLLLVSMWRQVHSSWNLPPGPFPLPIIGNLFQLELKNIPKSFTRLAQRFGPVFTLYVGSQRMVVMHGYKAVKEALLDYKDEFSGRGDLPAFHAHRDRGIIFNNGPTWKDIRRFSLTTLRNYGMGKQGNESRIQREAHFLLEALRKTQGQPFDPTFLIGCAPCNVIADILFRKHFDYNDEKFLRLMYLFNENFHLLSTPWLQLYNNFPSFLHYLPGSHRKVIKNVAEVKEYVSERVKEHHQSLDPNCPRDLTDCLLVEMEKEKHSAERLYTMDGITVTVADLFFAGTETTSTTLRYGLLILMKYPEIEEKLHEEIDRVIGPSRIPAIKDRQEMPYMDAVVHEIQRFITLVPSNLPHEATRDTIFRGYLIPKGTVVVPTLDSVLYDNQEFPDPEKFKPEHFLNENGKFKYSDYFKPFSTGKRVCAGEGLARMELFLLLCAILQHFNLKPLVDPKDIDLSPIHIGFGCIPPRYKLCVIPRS

C=Cc1ccccc1 [Styrene, styrene]
partition ratio k3/k4 [1]: 10,000

C=C [ET, ethylene]
VmaxEO (maximum EO formation rate) ([2]; liver microsomes pooled from 50 mice, 37°C, mean ± SE): 0.567 nmol/min/mg protein and 0.567 ± 0.038 nmol/min/mg protein | time in which hepatic CYP2E1 decreases to about one third of the initial status ([2]; mice, very high ET concentrations, expected from k4): 18 min | Km, predicted from in vitro ([2]; mouse, Km in suspension divided by Kst 0.55): 400 ppm in air | k3/k4 (partition ratio) ([2]; pooled mouse liver microsomes, mean ± SE): 100 ± 9 | k4 (suicide inactivation rate constant) ([2]; pooled mouse liver microsomes, six ET incubations, mean ± SE): 0.060 ± 0.005 min⁻¹ | k3 (catalytic rate constant of EO formation) ([2]; pooled mouse liver microsomes, VmaxEO divided by CYP2E1 content, mean ± SE): 5.9 ± 0.6 min⁻¹ | VmaxEO (maximum EO formation rate) ([3]; liver microsomes pooled from 10 rats, 37°C, mean ± SE): 0.401 nmol/min/mg protein and 0.401 ± 0.013 nmol/min/mg protein | k4 (suicide inactivation rate constant) ([3]; pooled rat liver microsomes, eight ET incubations, mean ± SE): 0.070 ± 0.006 min⁻¹ | k3/k4 (partition ratio) ([3]; pooled rat liver microsomes, mean ± SE): 169 ± 15 | k3 (catalytic rate constant of EO formation) ([3]; pooled rat liver microsomes, VmaxEO divided by CYP2E1 content, mean ± SE): 11.2 ± 1.5 min⁻¹ | Km, predicted from in vitro ([3]; rat, Km in suspension divided by Kst 0.50): 1516 ppm in air | k3/k4 (partition ratio) ([4]; human liver microsomes, mean ± SE): 39 ± 6 | k4 (suicide inactivation rate constant) ([4]; human liver microsomes, nine ET incubations, mean ± SE): 0.098 ± 0.013 min⁻¹ | Km, predicted from in vitro ([4]; human, Km in suspension divided by Kst 0.33): 963 ppm in air | time in which hepatic CYP2E1 decreases to about one third of the initial status ([4]; humans, very high ET concentrations, expected from k4): 11 min | VmaxEO (maximum EO formation rate) ([4]; liver microsomes from one individual, mean ± SE): 0.253 ± 0.0002 nmol/min/mg protein | VmaxEO (maximum EO formation rate) ([4]; liver microsomes pooled from 25 humans, 37°C, mean ± SE): 0.219 nmol/min/mg protein and 0.219 ± 0.005 nmol/min/mg protein | k3 (catalytic rate constant of EO formation) ([4]; pooled human liver microsomes, VmaxEO divided by CYP2E1 content, mean ± SE): 3.2 ± 0.2 min⁻¹ | k4 (suicide inactivation rate constant) ([5]; lung microsomes pooled from 150 mice, two incubations): 0.306 min⁻¹ and 0.326 min⁻¹ | VmaxEO (maximum EO formation rate) ([5]; pooled mouse lung microsomes, mean of 16,500 and 75,400 ppm ET): 0.073 nmol/min/mg protein | k4 (suicide inactivation rate constant) ([6]; lung microsomes pooled from 50 rats, two incubations): 0.573 min⁻¹ and 0.392 min⁻¹ | VmaxEO (maximum EO formation rate) ([6]; pooled rat lung microsomes, mean of 18,600 and 57,800 ppm ET): 0.055 nmol/min/mg protein | VmaxEO in wild-type mice relative to CYP2E1 knockout mice ([7]; liver microsomes): about 15 times higher | ratio of VmaxEO/Km in wild-type mice to VmaxEO/Km in CYP2E1 knockout mice ([7]; liver microsomes): 340 | VmaxEO (maximum rate of EO formation) ([7]; pooled liver microsomes of 50 wild-type mice): 1.1 nmol/min/mg protein | VmaxEO (maximum rate of EO formation) [8]: 0.074 nmol/min/mg protein | initial rate of metabolic ET elimination [9]: 0.069 nmol/min/mg protein | Keq (thermodynamic partition coefficient medium-to-air) [10]: 0.2 ± 0.06 and 0.2 | Km, determined in vivo [11]: 105 ^d ppm in air | VmaxET, determined in vivo [11]: 15 ^d μmol/h/kg | Km, determined in vivo ([12]; ref Andersen et al. (1980)): 218 ^f ppm in air | VmaxET, determined in vivo ([12]; ref Andersen et al. (1980)): 8.6 ^f μmol/h/kg | Km, determined in vivo ([12]; ref Bolt et al. (1984)): 204 ^e ppm in air | VmaxET, determined in vivo ([12]; ref Bolt et al. (1984)): 8.5 ^e μmol/h/kg | hepatic 4-nitrophenol hydroxylase activity (predominantly CYP2E1) remaining ([13]; after 4 h, ref Fennell et al., 2004): 50% | hepatic CYP remaining after inactivation ([13]; after 360 min of exposure, ref Maples and Dahl, 1993): 68% | apparent Michaelis constant of the ET oxidation in the liver compartment [14]: 0.0005 mmol/L | long-term carcinogenicity study [15]: negative | mutagenicity [16]: negative

CC1CO1 (centres unmarked) [PO, propylene oxide]
hepatic microsomal elimination clearance [17]: 4.4 μl/min/mg protein | hepatic microsomal elimination clearance [18]: 9.9 μl/min/mg protein | half-life of nonenzymatic GSH conjugation [19]: 1.7 h | half-life of the noncatalyzed aqueous hydrolysis [20]: 88 h
